Article PMC13376172, “BromoCatch: a self-labelling tag platform for protein modification and live cell imaging” (Nature Communications, 2026)

Assays:
[1] = target: T1, Brd4-BD2 L387A,E438C (BromoCatch) (Homo sapiens, UniProt O60885, L387A/E438C); assay: intact protein LC-MS covalent adduct; DSF; format: binding
T1 construct: Brd4-BD2 (351–459)

Brd4-BD2 L387A,M442C = Brd4-BD2 L387A,M442C (Homo sapiens, UniProt O60885, L387A/M442C)
[2] = target: T2, Brd4-BD2 L387A,E438C (BromoCatch) (Homo sapiens, UniProt O60885, E438C/L387A); assay: biochemical
[3] = target: T2, Brd4-BD2 L387A,E438C (BromoCatch); assay: competition FP kinetics (kinact/KI); intact protein MS; DSF ΔTm +[…] °C; streptavidin pull-down; format: binding; design: Brd4-BD2; details: read-out: kinact_KI

SMILES | intact protein LC-MS covalent adduct; DSF [1] | other results
CC[C@@H](C(=O)OC)[C@@H]1N=C(c2ccc(NC(=O)CCl)cc2)c2c(sc(C)c2C)-n2c(C)nnc21 [MR112] | para chloroacetamide (MR112), vinyl sulfonamide (MR121) and acrylamide (MR116) performed as the best combinations | 
C=CC(=O)Nc1ccc(C2=N[C@@H]([C@@H](CC)C(=O)OC)c3nnc(C)n3-c3sc(C)c(C)c32)cc1 [MR116] |  | intact protein LC-MS covalent adduct; DSF (Brd4-BD2 L387A,M442C): (acrylamide, chloroacetamide, vinyl sulfonamide and epoxide) showed covalent modification of both cysteine-containing mutants; Ki [2]: 6.8 nM
CC[C@@H](C(=O)OC)[C@@H]1N=C(c2cccc(NC(=O)CCl)c2)c2c(sc(C)c2C)-n2c(C)nnc21 [MR118] | the chloroacetamides MR112 and MR118 demonstrated a slight improvement in potency | 
C=CC(=O)Nc1cccc(C2=N[C@@H]([C@@H](CC)C(=O)OC)c3nnc(C)n3-c3sc(C)c(C)c32)c1 [MR119] | Brd4-BD2^L387A,E438C exhibited excellent reactivity towards both meta and para electrophilic ligands | 
C=CS(=O)(=O)Nc1ccc(C2=N[C@@H]([C@@H](CC)C(=O)OC)c3nnc(C)n3-c3sc(C)c(C)c32)cc1 [MR121] | vinyl sulfonamide (MR121) and acrylamide (MR116) performed as the best combinations, providing the highest percentage of covalent engagement | 
C=CC(=O)Nc1ccc(C2=N[C@@H]([C@@H](CC)C(=O)NCCOCCOCCOCCOCCNC(=O)CCCC[C@@H]3SC[C@@H]4NC(=O)N[C@@H]43)c3nnc(C)n3-c3sc(C)c(C)c32)cc1 [MR169] |  | kinact/KI [3]: 37000 M⁻¹ s⁻¹
